For this assay, the target named is cat T1R1/T1R3 receptor (Felis catus, UniProt E3UMS2). Kind of assay: cell-based. It is filed as cell-based. An excerpt: Methods: HEK293 cells that stably express T1R3 and inducibly express T1R1 were exposed to nucleotide derivatives alone or in combination with one or more amino acids and/or one or more nucleotides to activate the umami receptor. Activation of the T1R1/T1R3 receptor was detected by a change in intracellular calcium levels using a calcium sensitive fluorescent dye and/or a luminescent reporter system. Cells that express T1R3 but not T1R1 were used as a control. A FLIPR® Tetra or a FlexStation® 3 was used for data capture.

The mark [1] stands for this setting: in the presence of 20 mM alanine.
[2] abbreviates: in the presence of 20 mM alanine, read-out: EC50- with Ala.
The mark [3] stands for this setting: in the presence of 20 mM alanine, relative to response with IMP.
Setting [4] is: threshold amount that activates the receptor, in the presence of 20 mM alanine.

Counter-ions that a name gives are not always drawn. Like-named read-outs stand apart in the source and are kept apart here.

Consider 19 compounds from patent US11185100B2 (priority 2014, dated 2021).

What is called EC50 is the concentration at which the effect is half-maximal.

As for “Guanosine 5′-monophosphomorpholidate 4-morpholine-N,N′-dicyclohexylcarboxamidine salt”, the outcome (+Alanine (20 mM)) was active. Besides, the “Max resp. (ΔF/F)” value under setting [1] is recorded as 0.5121 ΔF/F. Further, the EC50 under setting [2] amounted to 1300 µM. Under setting [3], the “Max. resp. % of IMP” value is given as 52.9 % of IMP. Also, the “Threshold” value under setting [4] was determined as 0.325 mM.
For `O=P(O)(O)OC[C@H]1O[C@@H](n2cnc3c(Cl)ncnc32)[C@H](O)[C@@H]1O` [6-chloropurineriboside-5′-O-monophosphate], under setting [2], the EC50 amounted to 2 µM. In addition, the “Threshold” value under setting [4] came to 0.0005 mM.
With `Nc1nc2c(ncn2[C@H]2C[C@H](O)[C@@H](COP(=O)(O)O)O2)c(=O)[nH]1` [2′-Deoxyguanosine 5′-monophosphate], the result (+Alanine (20 mM)) was active. Under setting [3], the “Max. resp. % of IMP” value is reported as 61.2 % of IMP. In addition, the “Threshold” value under setting [4] is 0.060 mM.
For `Nc1nc2c(ncn2[C@@H]2O[C@H](COP(=O)(O)OP(=O)(O)OP(=O)(O)O)[C@@H](O)[C@H]2O)c(=O)[nH]1` [Guanosine 5′-triphosphate], the result was active, the concentration for a half-maximal effect (EC50) amounted to 700 µM, the “Max resp. (ΔF/F)” value was 1.8075 ΔF/F and the “Threshold” value is 0.175 mM. For the same compound, under “hek293 cells”, the “Max. resp. % of IMP” value is listed as 145.5 % of IMP.
For the compound `O=c1[nH]cnc2c1ncn2[C@@H]1O[C@H](COP(=O)(O)OP(=O)(O)O)[C@@H](O)[C@H]1O` [Inosine 5′-diphosphate (IDP) sodium salt, inosine 5′-diphosphate (IDP) sodium salt], the result (+Alanine (20 mM)) was active. Also, the “Max resp. (ΔF/F)” value under setting [1] is on record as 0.3 ΔF/F. The “Max. resp. % of IMP” value under setting [3] is given as 33.3 % of IMP. Besides, the EC50 (read-out: EC50- with Ala) came to 650 µM. Besides, under setting [4], the “Threshold” value worked out at 0.1625 mM.
Regarding `Nc1nc2c(ncn2[C@@H]2O[C@H](COP(=O)(O)O)[C@@H](O)[C@H]2O)c(=O)[nH]1` [GMP, guanosine monophosphate, reference compound], the “Threshold” value is given as 0.008 mM.
Take `Nc1ncnc2c1ncn2C1OC(COP(=O)(O)O)C(OP(=O)(O)O)C1O` (centres unmarked) [Adenosine 3′,5′-diphosphate sodium salt, adenosine 3′, 5′ diphosphate sodium salt]: the result was active, the “Max resp. (ΔF/F)” value is recorded as 0.9578 ΔF/F and the “Threshold” value stood at 0.00025 mM. Also, the “Max. resp. % of IMP” value (hek293 cells) is on record as 98.9 % of IMP. Moreover, the 50% effective concentration (EC50) (read-out: EC50- with Ala) came out at 1 µM.
In the case of `O=P(O)(O)OP(=O)(O)OP(=O)(O)OC[C@H]1O[C@@H](n2cnc3c(O)ncnc32)[C@H](O)[C@@H]1O` [inosine triphosphate (ITP), inosine triphosphate, reference compound], the EC50 (read-out: EC50- with Ala) stood at 80 µM.
Consider `Nc1nc2c(ncn2[C@@H]2O[C@H](COP(=O)(O)O)[C@@H](O)[C@H]2O)c(=S)[nH]1` [6-thioguanosine-5′-O-monophosphate], for which the “Threshold” value was 0.0002 mM.
Take `Nc1ncnc2c1ncn2[C@H]1CC(OP(=O)(O)O)[C@@H](COP(=O)(O)O)O1` (stereo in doubt) [2′-Deoxyadenosine-3′,5′-O-bisphosphate, 2′-deoxyadenosine-3′, 5′-O-bisphosphate]: the result was active, the “Max resp. (ΔF/F)” value is reported as 0.8 ΔF/F and the “Threshold” value is recorded as 0.005 mM. Moreover, the “Max. resp. % of IMP” value (hek293 cells) was 76.4 % of IMP. In addition, under setting [2], the EC50 came to 20 µM.
In the same order, the values of `CC(=O)Nc1nc2c(ncn2[C@@H]2O[C@H](COP(=O)(O)O)[C@@H](O)[C@H]2O)c(=O)[nH]1` [N-Acetyl-5′-GMP] are “active”, 1.3351 ΔF/F, 0.025 mM, 137.9 % of IMP and 100 µM.
In the case of `Nc1ncnc2c1ncn2[C@H]1C[C@H](O)[C@@H](COP(=O)(O)O)O1` [2′-Deoxyadenosine 5′-monophosphate], the result was active, the “Max resp. (ΔF/F)” value was 1.1503 ΔF/F and the “Threshold” value is 0.035 mM. Moreover, the “Max. resp. % of IMP” value (hek293 cells) is 118.8 % of IMP. Also, where the note is “read-out: EC50- with Ala”, the EC50 was 140 µM.
Turning to `O=P(O)(O)OC[C@H]1O[C@@H](n2cnc3cncnc32)[C@H](O)[C@@H]1O` [Purine riboside-5′-O-monophosphate, reference compound], the outcome was active and the “Max resp. (ΔF/F)” value is 2.0266 ΔF/F. Also, for the setting “hek293 cells”, the “Max. resp. % of IMP” value is 209.3 % of IMP. Under setting [2], the EC50 was found to be 20 µM. Besides, the “Threshold” value under setting [4] is reported as 0.005 mM.
Consider `CNc1ncnc2c1ncn2[C@H]1C[C@H](OP(=O)(O)O)[C@@H](COP(=O)(O)O)O1` [MRS 2179 ammonium salt hydrate, 2′-Deoxy-N^6-methyl adenosine 3′,5′-diphosphate diammonium salt], for which the result was active, the “Max resp. (ΔF/F)” value is reported as 1.8150 ΔF/F and the “Threshold” value is 0.013 mM. Moreover, where the note is “hek293 cells”, the “Max. resp. % of IMP” value is given as 146.1 % of IMP.
Consider `Nc1ncnc2c1ncn2[C@H]1C[C@H](O)[C@@H](COP(O)(O)=S)O1` [2′-Deoxyadenosine-5′-O-monophosphorothioate], for which the result was active, the “Max resp. (ΔF/F)” value is 1.0375 ΔF/F and the “Threshold” value was 0.015 mM. Also, the “Max. resp. % of IMP” value (hek293 cells) is given as 83.5 % of IMP. Besides, under “read-out: EC50- with Ala”, the EC50 was 60 µM.
In the case of `O=P(O)(O)OC[C@H]1O[C@@H](n2cnc3c(NC4CCCC4)ncnc32)[C@H](O)[C@@H]1O` [N6-Cyclopentyladenosine-5′-O-monophosphate], the result was active, the “Max resp. (ΔF/F)” value is recorded as 1.2317 ΔF/F and the “Threshold” value came out at 0.013 mM. Besides, where the note is “hek293 cells”, the “Max. resp. % of IMP” value is 127.2 % of IMP. Also, the EC50 under setting [2] was determined as 50 µM.
Take `Nc1ncnc2c1ncn2C1OC(COP(=O)(O)OS(=O)(=O)O)C(O)C1O` (centres unmarked) [Adenosine 5′-phosphosulfate sodium salt, Adenosine 5′-phosphosulfate]: the “Max resp. (ΔF/F)” value is 0.8658 ΔF/F and the “Threshold” value is 0.008 mM. Moreover, the “Max. resp. % of IMP” value (hek293 cells) was 89.4 % of IMP.
Take `Nc1nc2c(ncn2[C@H]2O[C@@H](COP(=O)(O)O)[C@H](O)[C@@H]2O)c(=O)[nH]1` (stereo in doubt) [Guanosine monophosphate disodium salt, reference compound]: the outcome was active, the EC50 turned out to be 30 µM, the “Max resp. (ΔF/F)” value is 1.2786 ΔF/F and the “Threshold” value worked out at 0.008 mM. Moreover, the “Max. resp. % of IMP” value (hek293 cells) is on record as 132.1 % of IMP.
In the case of `Nc1ncnc2c1nc(Cl)n2[C@@H]1O[C@H](COP(=O)(O)O)C(O)C1O` (some centres unmarked) [8-Chloroadenosine-5′-O-monophosphate], the “Max resp. (ΔF/F)” value was 0.79 ΔF/F and the “Threshold” value worked out at 0.2 mM. For the same compound, the result (+Alanine (20 mM)) was active. Where the note is “hek293 cells”, the “Max. resp. % of IMP” value was 63.6 % of IMP.
